EC50 and IC50 data for 35 molecules are collected here from patent publication US20120040966A1, “ANTI-VIRAL COMPOUNDS, TREATMENT, AND ASSAY” (priority 2008, published 2012).

The subject of assay [1] is influenza strain A/VN/1203/2004 (H5N1). Briefly: microbe, parasite or virus in culture. In kind it is cell-based, Influenza A virus (H5N1).
Assay [2] has as its system Influenza virus strain A/CA/04/2009 (H1N1). In words: organism not typed. In kind it is cell-based. The settings on record: MDCK, 72 h, read-out: H1N1 EC50 (@ 50% Via).
The test system of assay [3] is Madin Darby Canine Kidney (MDCK) cells. In words: cells. To be noted: Canis lupus familiaris, MDCK, read-out: IC50 (toxicity). In kind it is cell-based.
The mark [4] stands for this setting: Influenza A virus, H5N1, MDCK, 72 h, read-out: H5N1 EC50 (@ 50% Via).
[5] abbreviates: Influenza A virus, H5N1, MDCK, 72 h, read-out: H5N1 EC50 (Inf Pt).

Like-named read-outs stand apart in the source and are kept apart here. Where only a bound is given, the exact number is not on record here.

For `COc1ccc(C2NC(=O)NC3=C2CCc2c(C)cc(C)cc23)cc1Br` (stereo not shown) [compound 22526], the concentration giving a half-maximal response (EC50) (as a rule, the midpoint of the concentration-response curve) in assay [1] (setting [4]) was more than 48 µM; in assay [1] (setting [5]), more than 48 µM; in assay [2] it was more than 50 µM. Further, the IC50 (commonly the concentration that gives 50% inhibition) in assay [3] is 6.9 µM.
For `COc1ccc(C2NC(=O)NC3=C2CN(C(=O)CSCCN(C)C)c2ccccc23)cc1Br` (stereo not shown) [compound 25410], the figures for the EC50 in assay [1] (setting [4]), in assay [1] (setting [5]) and in assay [2] were 0.714 µM, 0.669 µM and 15.6 µM, respectively.
For `Cc1cc(C2NC(=O)NC3=C2CCc2ccccc23)ccc1O` (stereo not shown) [compound 22706], the EC50 in assay [2] was 4.8 µM. The IC50 in assay [3] is more than 50 µM.
In the case of `COc1ccc(C2NC(=O)NC3=C2CN(C(=O)CN2CCC2)c2ccccc23)cc1Br` (stereo not shown) [compound 25411], the EC50 in assay [1] (setting [4]) came out at 0.814 µM; in assay [1] (setting [5]), 0.755 µM; in assay [2], 3.7 µM. For the same molecule, in assay [3], the concentration for half-maximal inhibition (IC50) is more than 40 µM.
For `COc1c(Br)cc(C2NC(=O)NC3=C2CCc2ccccc23)cc1Br` (stereo not shown) [compound 22703] the same measures were 38 µM, more than 40 µM, more than 40 µM and more than 40 µM.
`COc1ccc(C2NC(=O)NC3=C2CN(C(=O)CSCCO)c2ccccc23)cc1Br` (stereo not shown) [compound 25413]: the EC50 in assay [1] (setting [4]) was 4.4 µM; in assay [1] (setting [5]) it was 4.5 µM; in assay [2], 3.8 µM. In assay [3], the IC50 is more than 40 µM.
For `CCC(=O)N1CC2=C(NC(=O)NC2c2ccc(OC)c(Br)c2)c2ccccc21` (stereo not shown) [compound 23205] the same measures were 0.193 µM, 0.189 µM, 10.1 µM and more than 40 µM.
Turning to `COc1ccc(C2NC(=O)NC3=C2CN(C(=O)CNCCO)c2ccccc23)cc1Br` (stereo not shown) [compound 24717], the EC50 in assay [1] (setting [4]) turned out to be 2.1 µM; in assay [1] (setting [5]), 2.1 µM; in assay [2], 5.6 µM. In assay [3], the IC50 is more than 40 µM.
In the case of `O=C1NC2=C(CCc3ccccc32)C(c2ccc([N+](=O)[O-])cc2)N1` (stereo not shown) [compound 22349], the EC50 in assay [1] (setting [4]) is 1.17 µM; in assay [1] (setting [5]) it was 0.95 µM; in assay [2], 17.7 µM. For the same molecule, the IC50 in assay [3] is more than 50 µM.
The corresponding values for `O=C1NC2=C(CCc3ccccc32)C(c2ccc(Cl)cc2Cl)N1` (stereo not shown) [compound 22406] are more than 50 µM, more than 50 µM, more than 50 µM and more than 50 µM.
Turning to `COC(=O)N1CC2=C(NC(=O)NC2c2ccc(OC)c(Br)c2)c2ccccc21` (stereo not shown) [compound 25408], the figures for the EC50 in assay [1] (setting [4]), in assay [1] (setting [5]) and in assay [2] were 0.208 µM, 0.201 µM and 9.7 µM, respectively. Also, the IC50 in assay [3] is more than 40 µM.
For `CC(=O)Oc1ccc(C2NC(=O)NC3=C2COc2ccccc23)cc1Br` (stereo not shown) [compound 23097] the same measures were 0.0928 µM, 0.102 µM, 1 µM and more than 40 µM.
For `COc1ccc(C2NC(O)NC3=C2CN(C(=O)CO)c2ccccc23)cc1Br` (stereo not shown) [compound 23275] the same measures were 0.0027 µM, 0.0027 µM, less than 0.067 µM and more than 40 µM.
As for `COc1ccc(C2NC(=O)NC3=C2CCc2ccccc23)cc1C` (stereo not shown) [compound 22516], the EC50 in assay [2] came to 10 µM. Also, the IC50 in assay [3] is more than 50 µM.
For `COc1ccc(C2NC(=O)NC3=C2CSc2ccccc23)cc1Br` (stereo not shown) [compound 22412] the same measures were 0.351 µM and more than 50 µM.
Regarding `COc1ccc(C2NC(=O)NC3=C2COc2ccccc23)cc1Br` (stereo not shown) [compound 22521], the EC50 in assay [2] turned out to be 4 µM. Moreover, the IC50 in assay [3] was more than 50 µM.
Consider `COc1ccc(C2NC(=O)NC3=C2CN(C(C)=O)c2ccccc23)cc1Br` (stereo not shown) [compound 23099], for which, in assay [2], the EC50 came out at 0.0062 µM. Moreover, in assay [3], the IC50 is more than 40 µM.
For `O=C1NC2=C(CCc3ccccc32)C(c2ccc(O)c(Br)c2)N1` (stereo not shown) [compound 22709] the same measures were 0.118 µM and more than 53 µM.
The corresponding values for `O=C1NC2=C(CCc3ccccc32)C(c2ccc(F)c(Br)c2)N1` (stereo not shown) [compound 22409] are 1.4 µM and more than 50 µM.
For `COc1ccc(C2NC(=O)NC3=C2CNc2ccccc23)cc1Br` (stereo not shown) [compound 23100], the EC50 in assay [1] (setting [4]) was determined as 0.637 µM; in assay [1] (setting [5]), 0.718 µM. Besides, the IC50 in assay [3] was more than 40 µM.
Consider `Cc1cccc(C2NC(=O)NC3=C2COc2ccccc23)c1` (stereo not shown) [compound 22109], for which the EC50 in assay [2] was more than 50 µM. Further, the IC50 in assay [3] was more than 50 µM.
For the molecule `COc1ccc(C2NC(=O)NC3=C2CN(C(=O)C[n+]2ccccc2)c2ccccc23)cc1Br` (stereo not shown) [compound 25009], the EC50 in assay [1] (setting [4]) and in assay [1] (setting [5]) was 7.1 µM each time. In assay [3], the half-maximal inhibitory concentration (IC50) was more than 40 µM.
For `Cc1cc(C2NC(=O)NC3=C2CCc2ccccc23)cc(C)c1O` (stereo not shown) [compound 22705], the EC50 was more than 40 µM in assay [1] (setting [4]) and 10 µM in assay [1] (setting [5]). The IC50 in assay [3] was more than 40 µM.
With `O=C1NC2=C(CCc3ccccc32)C(c2cccnc2)N1` (stereo not shown) [compound 22086], the EC50 in assay [1] (setting [4]) was more than 50 µM. Moreover, in assay [3], the half-inhibitory concentration (IC50) was more than 50 µM.
Turning to `COc1ccc(C2NC(=O)NC3=C2CCc2ccccc23)c(OC)c1OC` (stereo not shown) [compound 22410], the EC50 in assay [1] (setting [4]) and in assay [1] (setting [5]) was more than 50 µM throughout. Moreover, in assay [3], the IC50 was more than 50 µM.
Take `COc1ccc(C2NC(=O)NC3=C2CSc2ccccc23)cc1F` (stereo not shown) [compound 22523]: the EC50 in assay [1] (setting [4]) stood at 0.76 µM; in assay [1] (setting [5]) it was 0.55 µM. Also, the half-maximal inhibitory concentration (IC50) in assay [3] is more than 50 µM.
The corresponding values for `COc1cccc(-c2nc(O)nc3c2COc2ccccc2-3)c1` [compound 22108] are more than 50 µM, more than 50 µM and more than 50 µM.
With `Cc1ccc(-c2nc(=O)[nH]c3c2Cc2ccccc2-3)cc1` [compound 22084], the EC50 in assay [1] (setting [4]) was more than 50 µM. For the same molecule, the IC50 in assay [3] was more than 50 µM.
Consider `Oc1nc(-c2ccc3c(c2)OCO3)c2c(n1)-c1ccccc1OC2c1ccccc1` (stereo not shown) [compound 22422], for which the EC50 in assay [1] (setting [4]) and in assay [1] (setting [5]) was more than 50 µM in each case. Moreover, the IC50 in assay [3] is more than 50 µM.
Turning to `COc1ccc(C2NC(=O)NC3=C2CC(C)c2ccccc23)cc1Br` (stereo not shown) [compound 22700], the EC50 in assay [2] is 0.0985 µM. In addition, in assay [3], the IC50 is more than 48 µM.
In the case of `O=C1NC2=C(CCCc3ccccc32)C(c2ccc3c(c2)OCO3)N1` (stereo not shown) [compound 22117], the EC50 came to 4.8 µM in assay [1] (setting [4]), 2.9 µM in assay [1] (setting [5]), 6.8 µM in assay [1] (read-out: H5N1 EC50 (@ 50% Via)) and 4 µM in assay [1] (read-out: H5N1 EC50 (Inf Pt)). For the same molecule, the IC50 in assay [3] is more than 50 µM.
For the molecule `COc1ccc(C2NC(=O)N(Cl)C3=C2CCc2ccccc23)cc1Br` (stereo not shown) [compound 22707], the EC50 turned out to be 0.192 µM in assay [1] (setting [4]) and 0.186 µM in assay [1] (setting [5]). For the same molecule, the IC50 in assay [3] was more than 50 µM.
For `COc1ccc(C2NC(=O)NC3=C2CCc2ccccc23)cc1Br` (stereo not shown) [compound 22405], in assay [2], the EC50 came to 0.425 µM. In assay [3], the IC50 was more than 50 µM.
On to `Nc1ccc(C2NC(=O)NC3=C2CCc2ccccc23)cc1` (stereo not shown) [compound 22350], for which the EC50 in assay [1] (setting [4]) came to 30.6 µM; in assay [1] (setting [5]) it was 17.9 µM. Moreover, in assay [3], the IC50 was more than 50 µM.
For `COc1ccc(C2NC(=O)NC3=C2CN(C(=O)Cn2ccnc2)c2ccccc23)cc1Br` (stereo not shown) [compound 25010] the same measures were less than 0.316 µM, 0.082 µM and more than 40 µM.
